Results reported in patent publication US10435371B2, “Multifunctional aminoquinoline therapeutic agent” (LOHOCLA RESEARCH CORPORATION, priority 2014, dated 2019).

How the values were obtained:
CB1 Receptor = molecular target: T1, CB1 Receptor (Homo sapiens, UniProt P21554); assay: PDSP radioligand displacement, [^3H]CP55940; parameters: species or system rat; settings: read-out: Binding constant Ki, CB1 Receptor
T1 construct: expressed in transfected cells

5-HT1B (Serotonin Rs) = 5-HT1B (Serotonin Rs) (Homo sapiens, UniProt P28222); assay: PDSP radioligand binding
5-HT1A (Serotonin Rs) = 5-HT1A (Serotonin Rs) (Homo sapiens, UniProt P08908); assay: PDSP radioligand binding
[1] = molecular target: β1 (Adrenergic Rs (beta adrenergic)) (Homo sapiens, UniProt P08588); assay: PDSP radioligand binding
[2] = molecular target: M2 (Muscarinic Cholinergic Rs) (Homo sapiens, UniProt P08172); assay: PDSP radioligand binding
delta opiate receptor = delta opiate receptor (Homo sapiens, UniProt P41143); assay: cAMP accumulation, HeLa cells transfected with D1 receptor, DOR and AC5; format: cell-based; parameters: expressed in transfected cells; settings: HeLa cells, AC5
Serotonin Transporter = Serotonin Transporter (Homo sapiens, UniProt P31645); assay: PDSP radioligand binding
[3] = molecular target: M1 (Muscarinic Cholinergic Rs) (Homo sapiens, UniProt P11229); assay: PDSP radioligand binding
[4] = test system: rats treated with Complete Freund's Adjuvant; assay: Combination with morphine, CFA-induced pain, mechanical pain threshold; format: in vivo, rat; settings: FIG. 15 Panel A
5-HT3 (Serotonin Rs) = 5-HT3 (Serotonin Rs) (Homo sapiens, UniProt P46098); assay: PDSP radioligand binding
EP2 (Prostaglandin Rs) = EP2 (Prostaglandin Rs) (Homo sapiens, UniProt P43116); assay: PDSP radioligand binding; settings: Table 3, the 6th table r12c1; read-out: Ki, EP2 (lack of affinity)
[5] = molecular target: mGluR5 (Metabotropic Glutamate Rs) (Homo sapiens, UniProt P41594); assay: PDSP radioligand binding
[6] = molecular target: BDZ site, GABA-A Receptor; assay: PDSP radioligand displacement, [^3H]Flunitrazepam; parameters: species or system rat; settings: read-out: Binding constant Ki, BDZ site, GABA-A Receptor
[7] = test system: rats treated with cisplatin; assay: Prevention of cisplatin-induced neuropathic pain; format: in vivo, rat; settings: 50 mg/kg intragastric twice daily for 14 days starting 1 h after first cisplatin injection; FIG. 14
Experimental: (§1) This example illustrates that treatment of animals with DCUKA following insult, but prior to development of neuropathic pain, can prevent the development of the pain. Rats were treated with cisplatin or CFA, and mechanical pain threshold was measured, as described under Example 5.
Prevention of Cisplatin-Induced Neuropathic Pain by DCUKA. One day after baseline measurement of the mechanical pain threshold, rats were injected i.p. with cisplatin. Cisplatin injections were again given on days 4, 8, and 12. Starting one hour after the first cisplatin injection, rats were given 50 mg/kg DCUKA or vehicle via intragastric gavage twice daily for 14 days. After the last treatment (day 15) the mechanical pain threshold was again tested. The pain threshold was then tested once weekly for 4 weeks, with no further treatments.

[8] = molecular target: GABA site, GABA-A Receptor; assay: PDSP radioligand displacement, [^3H]Muscimol; parameters: species or system rat; settings: read-out: Binding constant Ki, GABA site, GABA-A Receptor
D1 (Dopamine Rs) = D1 (Dopamine Rs) (Homo sapiens, UniProt P21728); assay: PDSP radioligand binding
[9] = test system: rats treated with cisplatin; assay: Reversal of cisplatin-induced neuropathic pain (von Frey mechanical pain threshold); format: in vivo, rat; settings: 50 mg/kg oral
[10] = test system: rats treated with Complete Freund's Adjuvant; assay: Prevention of CFA-induced neuropathic pain; format: in vivo, rat; settings: 50 mg/kg oral, four treatments at 12-hour intervals starting after CFA injection; FIG. 13
Experimental: as §1
Prevention of CFA-Induced Neuropathic Pain by DCUKA. After baseline measurement of the mechanical pain threshold, rats were treated with CFA as described earlier. Following the CFA injection, rats were given vehicle (canola oil/gelatin) (n=7) or 50 mg/kg DCUKA (n=7) orally by intragastric gavage. Rats then received three more treatments with vehicle or DCUKA at 12-hour intervals. At 60 hours after CFA treatment, the mechanical pain threshold was again tested.

[11] = test system: rats treated with streptozotocin; assay: Reversal of streptozotocin-induced (diabetic) neuropathic pain (von Frey); format: in vivo, rat
[12] = test system: rats treated with streptozotocin; assay: Combination with aspirin, STZ-induced neuropathic pain (von Frey); format: in vivo, rat; settings: FIG. 16
Experimental: After administration of streptozotocin (STZ) as described in Example 5, rats were tested for allodynia using a von Frey apparatus. Sixty minutes prior to testing, rats were divided into four groups. Group 1 received vehicle; group 2 received DCUKA; group 3 received aspirin; and group 4 received a combination of DCUKA and aspirin.

5-HT2B (Serotonin Rs) = 5-HT2B (Serotonin Rs) (Homo sapiens, UniProt P41595); assay: PDSP radioligand binding
5-HT2B (Serotonin Rs), sequence (P41595 whole entry): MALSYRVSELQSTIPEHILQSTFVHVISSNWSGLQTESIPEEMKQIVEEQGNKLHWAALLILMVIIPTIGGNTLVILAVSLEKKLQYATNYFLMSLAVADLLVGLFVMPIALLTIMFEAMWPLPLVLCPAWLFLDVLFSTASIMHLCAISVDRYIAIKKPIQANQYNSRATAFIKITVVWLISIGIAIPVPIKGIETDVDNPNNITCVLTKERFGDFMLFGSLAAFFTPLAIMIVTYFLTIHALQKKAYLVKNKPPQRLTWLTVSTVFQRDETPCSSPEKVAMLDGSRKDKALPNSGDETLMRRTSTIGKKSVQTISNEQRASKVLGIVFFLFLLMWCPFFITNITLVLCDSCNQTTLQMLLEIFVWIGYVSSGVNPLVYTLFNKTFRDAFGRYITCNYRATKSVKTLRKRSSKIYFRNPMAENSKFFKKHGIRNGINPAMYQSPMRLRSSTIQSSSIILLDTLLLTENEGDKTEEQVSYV

delta opiate receptor, sequence (P41143 whole entry): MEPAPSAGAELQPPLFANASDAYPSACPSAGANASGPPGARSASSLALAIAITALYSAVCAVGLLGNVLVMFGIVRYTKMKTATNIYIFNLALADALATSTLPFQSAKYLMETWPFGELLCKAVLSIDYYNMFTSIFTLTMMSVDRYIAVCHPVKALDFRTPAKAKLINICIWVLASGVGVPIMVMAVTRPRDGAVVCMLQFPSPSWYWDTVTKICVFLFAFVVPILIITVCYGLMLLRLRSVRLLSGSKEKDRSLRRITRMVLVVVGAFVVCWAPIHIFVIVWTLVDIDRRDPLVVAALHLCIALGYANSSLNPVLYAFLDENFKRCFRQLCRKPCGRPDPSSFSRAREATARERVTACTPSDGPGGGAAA
M2 (Muscarinic Cholinergic Rs), sequence (P08172 whole entry): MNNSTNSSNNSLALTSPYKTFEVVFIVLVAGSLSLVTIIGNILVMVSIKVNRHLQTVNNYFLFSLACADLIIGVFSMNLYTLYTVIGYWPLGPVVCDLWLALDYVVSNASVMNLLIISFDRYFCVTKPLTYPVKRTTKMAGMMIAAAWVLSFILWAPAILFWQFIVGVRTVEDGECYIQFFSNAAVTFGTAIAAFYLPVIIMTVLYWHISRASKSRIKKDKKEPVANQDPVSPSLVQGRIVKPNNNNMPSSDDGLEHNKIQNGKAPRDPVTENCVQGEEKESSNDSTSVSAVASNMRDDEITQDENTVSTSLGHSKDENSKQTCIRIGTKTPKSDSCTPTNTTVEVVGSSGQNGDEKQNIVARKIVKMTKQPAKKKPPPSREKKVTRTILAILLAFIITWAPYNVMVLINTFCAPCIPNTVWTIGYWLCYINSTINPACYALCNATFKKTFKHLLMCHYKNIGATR
T1 sequence (P21554 whole entry): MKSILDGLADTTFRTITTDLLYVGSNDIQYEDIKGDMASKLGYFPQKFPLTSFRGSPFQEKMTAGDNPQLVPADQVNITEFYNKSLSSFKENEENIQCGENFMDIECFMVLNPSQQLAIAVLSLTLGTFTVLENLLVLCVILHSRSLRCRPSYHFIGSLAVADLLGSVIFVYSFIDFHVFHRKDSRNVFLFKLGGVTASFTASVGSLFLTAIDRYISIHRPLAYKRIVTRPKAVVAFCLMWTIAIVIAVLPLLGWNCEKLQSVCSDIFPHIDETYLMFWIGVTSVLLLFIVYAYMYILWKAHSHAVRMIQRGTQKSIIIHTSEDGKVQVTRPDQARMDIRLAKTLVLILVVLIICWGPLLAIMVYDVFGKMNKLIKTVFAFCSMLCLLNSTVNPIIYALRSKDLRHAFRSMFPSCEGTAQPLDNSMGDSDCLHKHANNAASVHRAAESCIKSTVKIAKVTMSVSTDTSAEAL
β1 (Adrenergic Rs (beta adrenergic)), sequence (P08588 whole entry): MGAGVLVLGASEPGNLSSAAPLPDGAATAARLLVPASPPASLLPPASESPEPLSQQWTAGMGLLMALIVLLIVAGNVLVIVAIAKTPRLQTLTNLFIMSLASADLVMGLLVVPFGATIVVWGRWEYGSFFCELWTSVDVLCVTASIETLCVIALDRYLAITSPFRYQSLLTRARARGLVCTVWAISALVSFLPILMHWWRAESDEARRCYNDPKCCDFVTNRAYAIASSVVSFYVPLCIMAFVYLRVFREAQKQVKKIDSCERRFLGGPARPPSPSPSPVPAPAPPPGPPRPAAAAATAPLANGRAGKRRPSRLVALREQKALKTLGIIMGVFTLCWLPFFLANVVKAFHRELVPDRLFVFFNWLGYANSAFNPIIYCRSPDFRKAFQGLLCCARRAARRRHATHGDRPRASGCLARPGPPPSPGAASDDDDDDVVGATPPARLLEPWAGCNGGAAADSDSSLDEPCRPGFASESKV
5-HT1B (Serotonin Rs), sequence (P28222 whole entry): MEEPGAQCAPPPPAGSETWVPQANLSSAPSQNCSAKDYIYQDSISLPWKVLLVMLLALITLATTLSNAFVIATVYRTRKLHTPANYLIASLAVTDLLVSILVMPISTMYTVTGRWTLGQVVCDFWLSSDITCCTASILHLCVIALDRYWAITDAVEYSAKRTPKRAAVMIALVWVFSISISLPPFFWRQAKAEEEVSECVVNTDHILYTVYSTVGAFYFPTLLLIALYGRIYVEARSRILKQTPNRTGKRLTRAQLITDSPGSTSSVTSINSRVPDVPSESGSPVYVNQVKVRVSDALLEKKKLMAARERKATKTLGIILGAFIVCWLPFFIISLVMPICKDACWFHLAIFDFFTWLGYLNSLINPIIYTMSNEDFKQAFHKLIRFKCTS
5-HT3 (Serotonin Rs), sequence (P46098 24-478): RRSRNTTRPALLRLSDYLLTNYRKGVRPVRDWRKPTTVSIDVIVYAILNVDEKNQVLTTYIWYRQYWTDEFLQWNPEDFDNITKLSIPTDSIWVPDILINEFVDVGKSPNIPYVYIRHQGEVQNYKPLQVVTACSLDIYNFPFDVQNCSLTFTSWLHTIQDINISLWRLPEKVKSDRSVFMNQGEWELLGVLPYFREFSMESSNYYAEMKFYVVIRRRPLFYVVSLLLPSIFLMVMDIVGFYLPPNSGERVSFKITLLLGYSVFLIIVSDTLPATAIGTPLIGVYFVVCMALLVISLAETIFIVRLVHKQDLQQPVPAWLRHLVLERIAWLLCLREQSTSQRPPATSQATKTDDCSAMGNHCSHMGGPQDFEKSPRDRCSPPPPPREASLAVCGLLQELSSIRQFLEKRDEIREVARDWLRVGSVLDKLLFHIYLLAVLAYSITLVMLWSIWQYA
5-HT1A (Serotonin Rs), sequence (P08908 whole entry): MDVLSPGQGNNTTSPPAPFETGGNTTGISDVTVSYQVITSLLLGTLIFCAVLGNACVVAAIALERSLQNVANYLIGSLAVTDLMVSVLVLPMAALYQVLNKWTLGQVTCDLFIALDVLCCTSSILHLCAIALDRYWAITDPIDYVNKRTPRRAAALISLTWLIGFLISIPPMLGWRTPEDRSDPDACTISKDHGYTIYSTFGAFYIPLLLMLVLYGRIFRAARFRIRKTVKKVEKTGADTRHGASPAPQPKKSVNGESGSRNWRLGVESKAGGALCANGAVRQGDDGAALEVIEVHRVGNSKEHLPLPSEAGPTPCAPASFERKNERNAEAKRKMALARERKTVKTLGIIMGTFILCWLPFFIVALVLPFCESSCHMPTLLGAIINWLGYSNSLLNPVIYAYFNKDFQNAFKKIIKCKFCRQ
Serotonin Transporter, sequence (P31645 whole entry): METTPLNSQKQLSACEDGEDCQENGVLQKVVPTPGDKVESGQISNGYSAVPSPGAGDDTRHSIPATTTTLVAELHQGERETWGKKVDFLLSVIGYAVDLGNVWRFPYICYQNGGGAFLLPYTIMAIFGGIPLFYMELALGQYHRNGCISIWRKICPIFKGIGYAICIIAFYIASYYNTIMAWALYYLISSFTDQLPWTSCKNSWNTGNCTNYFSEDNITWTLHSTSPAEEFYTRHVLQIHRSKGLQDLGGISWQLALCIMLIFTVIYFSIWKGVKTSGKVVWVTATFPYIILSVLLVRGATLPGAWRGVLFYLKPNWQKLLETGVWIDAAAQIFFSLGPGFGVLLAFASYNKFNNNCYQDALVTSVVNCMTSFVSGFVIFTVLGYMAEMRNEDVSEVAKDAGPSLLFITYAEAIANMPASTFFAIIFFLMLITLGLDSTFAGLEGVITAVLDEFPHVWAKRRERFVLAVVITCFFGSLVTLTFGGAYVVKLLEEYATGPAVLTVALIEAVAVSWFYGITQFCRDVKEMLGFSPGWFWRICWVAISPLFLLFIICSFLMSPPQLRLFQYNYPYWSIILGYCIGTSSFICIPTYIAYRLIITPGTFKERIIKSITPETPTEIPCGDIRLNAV
EP2 (Prostaglandin Rs), sequence (P43116 whole entry): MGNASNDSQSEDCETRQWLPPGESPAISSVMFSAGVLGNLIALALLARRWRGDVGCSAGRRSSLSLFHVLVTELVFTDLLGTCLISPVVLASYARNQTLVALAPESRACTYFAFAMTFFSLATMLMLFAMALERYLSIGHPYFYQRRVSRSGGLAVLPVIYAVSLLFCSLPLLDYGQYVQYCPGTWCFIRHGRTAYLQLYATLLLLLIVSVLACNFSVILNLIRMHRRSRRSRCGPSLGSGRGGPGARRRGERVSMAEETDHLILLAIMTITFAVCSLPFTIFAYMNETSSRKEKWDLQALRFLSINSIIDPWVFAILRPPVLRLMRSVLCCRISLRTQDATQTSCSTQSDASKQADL
D1 (Dopamine Rs), sequence (P21728 whole entry): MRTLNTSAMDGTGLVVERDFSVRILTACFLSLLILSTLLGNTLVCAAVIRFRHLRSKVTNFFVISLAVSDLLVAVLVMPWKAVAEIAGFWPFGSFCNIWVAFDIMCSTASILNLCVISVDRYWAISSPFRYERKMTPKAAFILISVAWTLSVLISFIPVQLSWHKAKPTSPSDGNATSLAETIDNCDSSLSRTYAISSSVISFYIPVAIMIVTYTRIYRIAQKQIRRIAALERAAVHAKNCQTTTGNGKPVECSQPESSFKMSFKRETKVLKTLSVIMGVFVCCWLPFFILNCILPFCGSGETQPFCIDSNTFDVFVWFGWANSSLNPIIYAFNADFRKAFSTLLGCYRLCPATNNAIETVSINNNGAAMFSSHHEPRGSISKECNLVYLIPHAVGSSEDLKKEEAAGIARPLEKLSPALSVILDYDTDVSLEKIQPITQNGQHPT

Question: O=C(O)c1cc(NC(=O)N(c2ccccc2)c2ccccc2)c2c(Cl)cc(Cl)cc2n1 [DCUKA, 5,7-dichloro-4-(3,3-diphenylureido)quinoline-2-carboxylic acid] was tested. Which Ki (CB1 Receptor) did it give?
Answer: The Ki was 11 ± 2.7 µM.

Question: And the Ki (5-HT1B (Serotonin Rs))?
Answer: Its Ki is > 10 µM.

Question: And the Ki (5-HT1A (Serotonin Rs))?
Answer: Its Ki is > 10 µM.

Question: And the Ki [1]?
Answer: The Ki was > 10 µM.

Question: What about the Ki [2] of the same compound?
Answer: The Ki was > 10 µM.

Question: What about the “Character of action at the delta opiate receptor” value (delta opiate receptor) of the same compound?
Answer: The value was “agonist”.

Question: What about the IC50 (delta opiate receptor; D1, DOR, 10 μM DA, DCUKA 0.25-20 μM, regression analysis, FIG. 3, read-out: IC50 for inhibition of cAMP accumulation) of the same compound?
Answer: Its IC50 is 3.9 ± 0.47 µM.

Question: And the Ki (Serotonin Transporter)?
Answer: Its Ki is > 10 µM.

Question: What about the Ki [3] of the same compound?
Answer: Its Ki is > 10 µM.

Question: And the “Analgesia, each agent alone at the dose used for the combination” value [4]?
Answer: Its value is “ineffective in producing analgesia”.

Question: And the “Reversal of CFA-induced pain, combination of DCUKA and morphine” value ([4]; doses ineffective alone, injected 30 min before test, 48 h after CFA)?
Answer: The value was “complete reversal of inflammation-induced chronic pain”.

Question: What about the Ki (5-HT3 (Serotonin Rs)) of the same compound?
Answer: The Ki was > 10 µM.

Question: And the Ki (EP2 (Prostaglandin Rs))?
Answer: Its Ki is > 10 µM.

Question: And the Ki [5]?
Answer: The Ki was > 10 µM.

Question: What about the Ki [6] of the same compound?
Answer: The Ki was > 10 µM.

Question: And the “Mechanical pain threshold (paw withdrawal threshold) over days” value [7]?
Answer: Its value is “no statistically significant decrease of pain threshold compared to the pre-cisplatin baseline”.

Question: And the Ki [8]?
Answer: Its Ki is 6.6 ± 1.8 µM.

Question: And the Ki (D1 (Dopamine Rs))?
Answer: The Ki was > 10 µM.

Question: What about the “Mechanical pain threshold, ratio to baseline” value ([9]; cisplatin i.p. 7 mg/kg total, day 14, 1 and 2 hours, FIG. 6) of the same compound?
Answer: Its value is “significantly reversed the drop in mechanical pain threshold”.

Question: What about the “Mechanical pain threshold, ratio to pre-cisplatin baseline” value ([9]; rats, 1 hour after dosing, six experiments combined, FIG. 5) of the same compound?
Answer: The value was “increases the mechanical pain threshold to control levels”.

Question: And the “Mechanical pain threshold at 60 hours after CFA, ratio to baseline” value [10]?
Answer: Its value is “the threshold was not reduced”.

Question: What about the “Mechanical pain threshold, ratio to baseline” value ([11]; 14 days after STZ, 40 or 50 mg/kg oral, 90 minutes, three experiments combined, FIG. 10) of the same compound?
Answer: The value was “reversed to the baseline level”.

Question: What about the “Difference between 50 mg/kg DCUKA and 0 mg/kg DCUKA in ratio of mechanical pain threshold to pre-STZ threshold” value ([11]; Fisher's LSD, p<0.0001, FIG. 10) of the same compound?
Answer: The value was 0.60.

Question: And the “Doses that reversed the effect of STZ on pain threshold back to baseline” value ([11]; oral, 90 minutes, meta-analysis of four experiments, FIG. 11)?
Answer: The value was ≥ 30 mg/kg.

Question: What about the “Effect on allodynia, combination of DCUKA and aspirin” value ([12]; DCUKA 12.5 mg/kg plus aspirin 25 mg/kg) of the same compound?
Answer: Its value is “completely reverse the hyper-responsiveness”.

Question: And the “Effect on allodynia, alone” value ([12]; DCUKA 12.5 mg/kg, 60 min before test)?
Answer: The value was “do not have any significant effect on allodynia”.

Question: And the Ki (5-HT2B (Serotonin Rs))?
Answer: Its Ki is > 10 µM.
